Assay results: patent US12171230B2, “Herbicidal compositions” (Bayer Aktiengesellschaft, priority 2018, dated 2024)

What was measured:
Format in all cases: in vivo
Bidens pilosa = test: Post-emergence herbicidal action against Bidens pilosa
Method: (§1) When the observed efficacies exceed the formal sum total of the values of the tests with individual applications, they also exceed the expected value according to Colby, which is calculated using the formula below and is likewise regarded as an indication of synergism (cf. S. R. Colby; in Weeds 15 (1967) p. 20 to 22): E^C=A+B−([…])
(§2) Here: • A=efficacy of the active compound (A) in % at an application rate of a g a.i./ha; • B=efficacy of the active compound (B) in % at an application rate of b g a.i./ha; • E^C=expected value of the effect of the combination (A)+(B) in % at the combined application rate a+b g a.i./ha.
(§3) Seeds or rhizome pieces of mono- and dicotyledonous weeds are placed in sandy loam in pots, covered with soil and grown in a greenhouse under good growth conditions (temperature, air humidity, water supply). Three weeks after sowing, the test plants were treated at the three-leaf stage with the compositions according to the invention. The compositions according to the invention formulated as spray powders or as emulsion concentrates were sprayed onto the green plant parts in various dosages with an application rate of 300 to 800 l/ha of water (equivalent). After the test plants have been left to stand in the greenhouse under optimal growth conditions for about 3 to 4 weeks, the action of the preparations is scored visually in comparison to untreated controls. The compositions according to the invention also have good post-emergence herbicidal activity against a broad spectrum of economically important gramineous and broadleaf weeds.

Digitaria sanguinalis = test: Post-emergence herbicidal action against Digitaria sanguinalis; settings: for Herbicidal action: 21 DAT
Method: as §1, §2, §3

Centaurea cyano = test: Post-emergence herbicidal action against Centaurea cyano
Method: Seeds or rhizome pieces of mono- and dicotyledonous weeds are placed in sandy loam in pots, covered with soil and grown in a greenhouse under good growth conditions (temperature, air humidity, water supply). Three weeks after sowing, the test plants were treated at the three-leaf stage with the compositions according to the invention. The compositions according to the invention formulated as spray powders or as emulsion concentrates were sprayed onto the green plant parts in various dosages with an application rate of 300 to 800 l/ha of water (equivalent).

Matricaria inodora = test: Post-emergence herbicidal action against Matricaria inodora
[1] = tested on: Lolium rigidum (resistant biotype); test: Post-emergence herbicidal action against Lolium rigidum (resistant biotype)
Excerpt: (§4) The following abbreviations are used in the description and the tables that follow: • g of a.i./ha=grams of active substance (active ingredient) (=100% active compound) per hectare; • The sum total of the effects of the individual applications is reported under E^A; • expected values according to Colby are each reported under E^C.
(§5) The rating period is reported in days after application (DAT).

Phalaris minor = test: Post-emergence herbicidal action against Phalaris minor; settings: 15 g of a.i./ha
Excerpt: as §4, §5

Alopecurus myosuroides = test: Post-emergence herbicidal action against Alopecurus myosuroides; settings: 1.7 g of a.i./ha
Excerpt: as §4, §5

Amaranthus palmeri = test: Post-emergence herbicidal action against Amaranthus palmeri; settings: Amaranthus palmeri, post-emergence, 504 h
Method: as §1, §2, §3

Poa annua = test: Post-emergence herbicidal action against Poa annua; settings: post-emergence
Method: as §1, §2, §3

Galium aparine = test: Post-emergence herbicidal action against Galium aparine; settings: for Herbicidal action in [%] 28 DAT against Galium aparine: post-emergence
Method: as §1, §2, §3

## CP(=O)(O)CCC(N)C(=O)O (racemic) [(B7.4) Glufosinate-]
Bidens pilosa; 21 DAT, 360 g a.i./ha
  Herbicidal action: 70%
Digitaria sanguinalis; 40 g a.i./ha
  Herbicidal action: 10%
Digitaria sanguinalis; 120 g a.i./ha
  Herbicidal action: 30%

## COc1cc(OC)nc(NC(=O)NS(=O)(=O)c2cc(CNS(C)(=O)=O)ccc2C(=O)O)n1 [(B2.37) Mesosulfuron]
Centaurea cyano; 5 g of a.i./ha
  Herbicidal action 28 DAT against Centaurea cyanus: 60%
Matricaria inodora; 15 g of a.i./ha
  Herbicidal action 14 DAT against Matricaria inodora: 75%
  Herbicidal action 28 DAT against Matricaria inodora: 65%
[1]; 1.7 g of a.i./ha
  Herbicidal action 14 DAT against Lolium rigidum (resistant biotype): 20%
  Herbicidal action 28 DAT against Lolium rigidum (resistant biotype): 0%
[1]; 5 g of a.i./ha
  Herbicidal action 14 DAT against Lolium rigidum (resistant biotype): 30%
  Herbicidal action 28 DAT against Lolium rigidum (resistant biotype): 0%
[1]; 15 g of a.i./ha
  Herbicidal action 14 DAT against Lolium rigidum (resistant biotype): 30%
  Herbicidal action 28 DAT against Lolium rigidum (resistant biotype): 20%
Phalaris minor
  Herbicidal action 28 DAT against Phalaris minor: 85%
Alopecurus myosuroides
  Herbicidal action 28 DAT against Alopecurus myosuroides: 75%

## COCc1cnc(C2=NC(C)(C(C)C)C(=O)N2)c(C(=O)O)c1 (stereo not drawn) [(B4.11) Imazamox]
Bidens pilosa; 3.3 g of a.i./ha
  Herbicidal action 21 DAT [%] against Bidens pilosa: 20%
Bidens pilosa; 30 g of a.i./ha
  Herbicidal action 21 DAT [%] against Bidens pilosa: 50%
Digitaria sanguinalis; 3.3 g of a.i./ha
  Herbicidal action 21 DAT [%] against Digitaria sanguinalis: 60%

## CCc1cnc(C2=NC(C)(C(C)C)C(=O)N2)c(C(=O)O)c1 (stereo not drawn) [(B4.15) Imazethapyr]
Amaranthus palmeri; 3.33 g of a.i./ha, read-out: Herbicidal action 21 DAT [%] against Amaranthus palmeri
  pest or weed control at 3.33 g/ha: 0%
Amaranthus palmeri; 10 g of a.i./ha, read-out: Herbicidal action 21 DAT [%] against Amaranthus palmeri
  pest or weed control at 10 g/ha: 0%
Amaranthus palmeri; 30 g of a.i./ha, read-out: Herbicidal action 21 DAT [%] against Amaranthus palmeri
  pest or weed control at 30 g/ha: 10%
Bidens pilosa; 3.33 g of a.i./ha
  Herbicidal action 21 DAT [%] against Bidens pilosa: 0%
Bidens pilosa; 10 g of a.i./ha
  Herbicidal action 21 DAT [%] against Bidens pilosa: 0%
Bidens pilosa; 30 g of a.i./ha
  Herbicidal action 21 DAT [%] against Bidens pilosa: 25%

## C#CCN1C(=O)COc2cc(F)c(N3C(=O)C4=C(CCCC4)C3=O)cc21 [(B5.26) Flumioxazin]
Amaranthus palmeri; 21 DAT, 1.33 g of a.i./ha
  pest or weed control at 1.33 g/ha: 0%
Amaranthus palmeri; 21 DAT, 4 g of a.i./ha
  pest or weed control at 4 g/ha: 0%
Amaranthus palmeri; 21 DAT, 12 g of a.i./ha
  pest or weed control at 12 g/ha: 10%

## CCOC(=O)COc1ncccc1Oc1cc(-n2c(=O)cc(C(F)(F)F)n(C)c2=O)c(F)cc1Cl [(B9.14), ethyl [3-[2-chloro-4-fluoro-5-(1-methyl-6-trifluoromethyl-2,4-dioxo-1,2,3,4-tetrahydropyrimidin-3-yl)phenoxy]-2-pyridyloxy]acetate, reference compound]
Poa annua; 5 g of a.i./ha
  Herbicidal action in [%] 28 DAT against Poa annua: 80%
Poa annua; 10 g of a.i./ha
  Herbicidal action in [%] 28 DAT against Poa annua: 60%
Centaurea cyano; 2.5 g of a.i./ha, post-emergence
  Herbicidal action in [%] 28 DAT against Centaurea cyano: 90%
Galium aparine; 5 g of a.i./ha
  Herbicidal action in [%] 28 DAT against Galium aparine: 90%
Galium aparine; 10 g of a.i./ha
  Herbicidal action in [%] 28 DAT against Galium aparine: 90%
Matricaria inodora; 10 g of a.i./ha, post-emergence
  Herbicidal action in [%] 28 DAT against Matricaria inodora: 98%

## CC(C)N.O=C(O)CNCP(=O)(O)O [(CAS 38641-94-0)]
Galium aparine; 28 DAT, 150 g a.i./ha
  Herbicidal action: 40%
